A short description of data set [1]: Aqueous solubility assay. The format is physicochemical. The following applies: thermodynamic from solid, HPLC. On the procedure:
10-30 mg of compounds were dissolved in water and an HCl solution at pH1.2 respectively, and then were continuously shook for three days, followed by centrifugation at 10000 rpm/minute for five minutes. A 2 mL aliquot of supernatant was removed and diluted to 50 mL to prepare a sample solution. A control solution was prepared by dissolving 2.5 mg compounds in methanol, which was subsequently diluted with water to a final volume of 50 mL. 20 μL of control and sample solutions were injected into HPLC. The area under the curve (A) of the sample solution was compared with that of the control solution and used for determination of the concentration. Solubility was calculated by the formula below. Solubility (mg/mL)=c(control)*25*A(sample)/A(control) • C (control): concentration of the control solution • A (sample): area under the curve of the sample solution • A (control): area under the curve of the control solution

Data set [2] deals with MDA-MB-231 cells (breast cancer cells). Briefly: Cancer cell proliferation assay, MDA-MB-231. The format is cell-based. The settings on record: Homo sapiens; for IC50: MDA-MB-231, 72 h, three days incubation, absorbance 570 nm, read-out: IC50 (μM) MDA-MB-231. On the procedure:
(§1) BxPC-3 cells (pancreatic cancer) and MDA-MB-231 cells (breast cancer cells) were harvested from exponential phase cultures and seeded in 96-well plates at a cell density of 2×10^4 per well. After overnight attachment, compounds including positive controls were applied to cells at five concentrations and incubated for three days. During the last four hours of incubation, 20 μL of 5 mg/mL […] was added followed by the further addition of 100 μL DMSO. The plates were subsequently shook for 10 minutes to dissolve insoluble purple formazan. Absorbance (A) at a wavelength of 570 nm was quantified. Percentage of inhibition was used for the calculation of IC50 based on the bliss method.

A short description of data set [3]: In vivo pharmacokinetic analysis. The following applies: ICR, mouse; mice, 5 mg/kg, oral gavage in 0.5% CMC, plasma. On the procedure: A group of 9 ICR mice received 5 mg/kg of compound in 0.5% CMC by oral gavage. Blood was taken before treatment and at 5 min, 30 min, 1, 2, 4, 8, 12 and 24 h after treatment. 80 μL of whole blood was sampled (n=3 at each time point) via retro-orbital bleeds or cardiac puncture. The blood sample was collected into EDTA tubes and plasma were obtained by centrifugation at 1500-1600 rpm for 10 min at 4° C. After centrifugation, plasma sample was transferred to a new tube and stored at −60 to −90° C. for future analysis. Plasma concentration of (compounds was quantified by a method based on liquid chromatography coupled to tandem mass-spectrometric detections (LC/MS/MS). Noncompartmental pharmacokinetics parameters were calculated.

For data set [4], the system named is BxPC-3 cells (pancreatic cancer). Kind of data set: Cancer cell proliferation assay, BxPC-3. The format is cell-based. The settings on record: for IC50: BXPC-3, 72 h, three days incubation, absorbance 570 nm, read-out: IC50 (μM) BxPC-3. On the procedure:
as §1

For data set [5], the target named is T1, CRM1 (Homo sapiens, UniProt O14980).
T1 construct: The nuclear localization of Rev protein depends on CRM1; endogenous in cells; host or cells: U2OS cells stably or transiently expressing Rev-GFP (reporter cargo)
Briefly: Rev-GFP nuclear export assay. The format is cell-based. The settings on record: U2OS cells expressing Rev-GFP, 1 hour incubation, nuclear retention of Rev-GFP. On the procedure: The Rev protein from HIV contains nuclear export sequence (NES) at its C terminus and nuclear localization sequence (NLS) at its N-terminus. The nuclear localization of Rev protein depends on CRM1. U2OS cells expressing Rev protein fused with GFP (Rev-GFP) were plated in black 384 plates with clear bottom one day prior to treatment. Compounds were serially diluted 2-fold from 40 μM with DMEM in 384 plates, and then incubated with U2OS cells for an hour. Cells were fixed with 3.7% formaldehyde afterwards and nuclei were stained with Hoechst33258. The nuclear retention of Rev-GFP was examined, and IC50 was calculated.

SMILES strings stand for the structures. pIC50: −log10 of the molar value. Values after ≈ are worked out from the molar mass of the structure shown. Read-outs that look alike come from different tables or passages of the source. Where only a bound is given, the exact number is not on record here.

T1 sequence (O14980 whole entry): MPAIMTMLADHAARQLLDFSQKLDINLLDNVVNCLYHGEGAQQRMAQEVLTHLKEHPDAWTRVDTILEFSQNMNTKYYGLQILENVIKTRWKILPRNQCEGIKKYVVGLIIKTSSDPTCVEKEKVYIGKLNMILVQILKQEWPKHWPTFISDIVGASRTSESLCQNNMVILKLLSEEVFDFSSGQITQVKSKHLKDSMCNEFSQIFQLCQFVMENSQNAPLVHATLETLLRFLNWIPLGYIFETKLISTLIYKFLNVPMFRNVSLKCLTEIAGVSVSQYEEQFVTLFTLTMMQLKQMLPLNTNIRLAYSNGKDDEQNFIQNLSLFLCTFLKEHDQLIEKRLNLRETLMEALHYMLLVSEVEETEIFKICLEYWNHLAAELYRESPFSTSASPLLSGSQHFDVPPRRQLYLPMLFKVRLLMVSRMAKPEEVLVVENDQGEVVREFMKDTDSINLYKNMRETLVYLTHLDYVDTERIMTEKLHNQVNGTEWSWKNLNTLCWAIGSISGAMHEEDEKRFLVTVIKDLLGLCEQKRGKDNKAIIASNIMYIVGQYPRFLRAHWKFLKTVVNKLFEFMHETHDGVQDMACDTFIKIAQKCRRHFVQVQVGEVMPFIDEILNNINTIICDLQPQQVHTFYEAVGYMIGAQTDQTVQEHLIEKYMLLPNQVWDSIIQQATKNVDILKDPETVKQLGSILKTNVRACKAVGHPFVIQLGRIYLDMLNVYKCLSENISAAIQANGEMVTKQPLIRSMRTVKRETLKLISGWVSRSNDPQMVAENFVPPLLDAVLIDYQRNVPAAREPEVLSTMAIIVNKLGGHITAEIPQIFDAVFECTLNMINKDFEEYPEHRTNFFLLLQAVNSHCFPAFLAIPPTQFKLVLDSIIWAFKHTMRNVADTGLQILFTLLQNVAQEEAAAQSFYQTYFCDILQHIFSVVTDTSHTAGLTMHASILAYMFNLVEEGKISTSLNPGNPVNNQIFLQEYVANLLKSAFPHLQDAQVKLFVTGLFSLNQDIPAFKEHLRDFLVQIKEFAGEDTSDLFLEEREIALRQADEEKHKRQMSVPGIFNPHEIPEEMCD

Regarding `O=C(/C=C\n1cnc(-c2cc(C(F)(F)F)cc(C(F)(F)F)c2)n1)N1CCCN1` [Compound 90, (Z)-3-(3-(3,5-bis(trifluoromethyl)phenyl)-1H-1,2,4-triazol-1-yl)-1-(pyrazolidin-1-yl)prop-2-en-1-one], the solubility – broadly, how much of the substance goes into solution per volume – at 3 days in data set [1] (simulated gastric fluid, HCl solution of pH 1.2, shaken three days, read-out: Solubility, HCl solution of pH 1.2) was 349 µg/mL (≈ 861 µM); in data set [1] (water, shaken three days, read-out: Solubility, Water) it was 156 µg/mL (≈ 386 µM).

Turning to `CC1=C(C)C(=O)N(NC(=O)/C=C\n2cnc(-c3cc(C(F)(F)F)cc(C(F)(F)F)c3)n2)C1` [Compound 5, (Z)-3-(3-(3,5-bis(trifluoromethyl)phenyl)-1H-1,2,4-triazol-1-yl)-N-(3,4-dimethyl-2-oxo-2,5-dihydro-1H-pyrrol-1-yl)acrylamide], the IC50 (in general, the concentration needed to halve the response being measured) in data set [2] is 0.955 µM. In addition, in data set [3], the AUC(0-t) (in general, the area under the concentration-time curve up to a stated or last time point) is 3690 ng·h/mL; the Cmax (as a rule, the peak of the concentration-time curve) was 674 ng/mL; the MRT – broadly, a mean duration of stay, worked out from the concentration-time curve – was 4.34 h; the time of peak concentration (Tmax) (usually the time at which the peak concentration occurs) was 1 h. Further, in data set [3], the half-life (as a rule, the time needed for the level to fall by half in the phase considered) was 4.53 h. Besides, the IC50 in data set [4] (Homo sapiens) amounted to 0.202 µM. For the same compound, in data set [5], the pIC50 – broadly, −log10 of the IC50, conventionally taken in molar units – is above 6.00.

With `O=C(/C=C\n1cnc(-c2cc(C(F)(F)F)cc(C(F)(F)F)c2)n1)NN1C(=O)[C@@H]2CC[C@H]1C2` [Compound 33, (Z)-3-(3-(3,5-bis(trifluoromethyl)phenyl)-1H-1,2,4-triazol-1-yl)-N-((1S,4R)-3-oxo-2-azabicyclo[2.2.1]heptan-2-yl)acrylamide], the IC50 in data set [2] amounted to 0.165 µM. In addition, in data set [3], the AUC(0-t) came to 5770 ng·h/mL, the highest level (Cmax) was 697 ng/mL, the MRT worked out at 6.76 h and the Tmax was 1 h. Also, the half-life in data set [3] was 4.36 h. Also, the 50% inhibitory concentration (IC50) in data set [4] (Homo sapiens) worked out at 0.156 µM. Moreover, the pIC50 in data set [5] was above 6.00.

For the compound `COC1=CC(=O)N(NC(=O)/C=C\n2cnc(-c3cc(C(F)(F)F)cc(C(F)(F)F)c3)n2)CC1` [Compound 87, (Z)-3-(3-(3,5-bis(trifluoromethyl)phenyl)-1H-1,2,4-triazol-1-yl)-N-(4-methoxy-6-oxo-3,6-dihydropyridin-1(2H)-yl)acrylamide], in data set [2], the IC50 stood at 0.021 µM. Moreover, the pIC50 in data set [2] (MDA-MB-231, anti-proliferative assay, read-out: IC50 in MDA-MB-231 cells) is 7.68. Further, in data set [3], the exposure AUC(0-t) stood at 4080 ng·h/mL, the Cmax was 389 ng/mL, the mean residence time MRT was 6.56 h and the Tmax came to 0.5 h. In data set [3], this compound showed a half-life of 2.7 h. For the same compound, in data set [4] (Homo sapiens), the IC50 worked out at 0.041 µM. Further, the pIC50 in data set [4] (Homo sapiens, BXPC-3, anti-proliferative assay, read-out: IC50 in BxPC-3 cells) is 7.39. The “folds of enhancement of activity in the anti-proliferative assay” value in data set [4] (in comparison to KPT330, BxPC-3 and MDA-MB-231 cells) was 20 folds. Moreover, in data set [5], the pIC50 was above 6.00.

With `O=C(/C=C\n1cnc(-c2cc(C(F)(F)F)cc(C(F)(F)F)c2)n1)NN1CC(OCC(F)(F)F)=CC1=O` [Compound 83, (Z)-3-(3-(3,5-bis(trifluoromethyl)phenyl)-1H-1,2,4-triazol-1-yl)-N-(2-oxo-4-(2,2,2-trifluoroethoxy)-2,5-dihydro-1H-pyrrol-1-yl)acrylamide], the IC50 in data set [2] was found to be 0.214 µM; in data set [4] (Homo sapiens) it was 0.344 µM. The compound further gave a pIC50 in data set [5] above 6.00.

For the compound `[2H]C([2H])([2H])OC1=CC(=O)N(NC(=O)/C=C\n2cnc(-c3cc(C(F)(F)F)cc(C(F)(F)F)c3)n2)C1` [Compound 82, (Z)-3-(3-(3,5-bis(trifluoromethyl)phenyl)-1H-1,2,4-triazol-1-yl)-N-(4-(methoxy-d3)-2-oxo-2,5-dihydro-1H-pyrrol-1-yl)acrylamide], the figures for the IC50 in data set [2] and in data set [4] (Homo sapiens) were 0.102 µM and 0.016 µM, respectively. For the same compound, the pIC50 in data set [5] was above 6.00.

The values above are taken from patent publication US11286247B2, “Acryloyl-containing nuclear transport regulators and uses thereof” (WIGEN BIOMEDICINE TECHNOLOGY (SHANGHAI) CO., LTD., priority 2019, dated 2022).
